Each compound was assayed against T1, TRPC5 (Homo sapiens, UniProt Q9UL62) (assay: TRPC5 fluorescence assay, membrane potential dye, flexstation (FLEX)). Settings: Table 6; HEK293 cells overexpressing TRPC5.
T1 construct: expressed in transfected cells; host or cells: HEK 293
T1 sequence (Q9UL62 1-973): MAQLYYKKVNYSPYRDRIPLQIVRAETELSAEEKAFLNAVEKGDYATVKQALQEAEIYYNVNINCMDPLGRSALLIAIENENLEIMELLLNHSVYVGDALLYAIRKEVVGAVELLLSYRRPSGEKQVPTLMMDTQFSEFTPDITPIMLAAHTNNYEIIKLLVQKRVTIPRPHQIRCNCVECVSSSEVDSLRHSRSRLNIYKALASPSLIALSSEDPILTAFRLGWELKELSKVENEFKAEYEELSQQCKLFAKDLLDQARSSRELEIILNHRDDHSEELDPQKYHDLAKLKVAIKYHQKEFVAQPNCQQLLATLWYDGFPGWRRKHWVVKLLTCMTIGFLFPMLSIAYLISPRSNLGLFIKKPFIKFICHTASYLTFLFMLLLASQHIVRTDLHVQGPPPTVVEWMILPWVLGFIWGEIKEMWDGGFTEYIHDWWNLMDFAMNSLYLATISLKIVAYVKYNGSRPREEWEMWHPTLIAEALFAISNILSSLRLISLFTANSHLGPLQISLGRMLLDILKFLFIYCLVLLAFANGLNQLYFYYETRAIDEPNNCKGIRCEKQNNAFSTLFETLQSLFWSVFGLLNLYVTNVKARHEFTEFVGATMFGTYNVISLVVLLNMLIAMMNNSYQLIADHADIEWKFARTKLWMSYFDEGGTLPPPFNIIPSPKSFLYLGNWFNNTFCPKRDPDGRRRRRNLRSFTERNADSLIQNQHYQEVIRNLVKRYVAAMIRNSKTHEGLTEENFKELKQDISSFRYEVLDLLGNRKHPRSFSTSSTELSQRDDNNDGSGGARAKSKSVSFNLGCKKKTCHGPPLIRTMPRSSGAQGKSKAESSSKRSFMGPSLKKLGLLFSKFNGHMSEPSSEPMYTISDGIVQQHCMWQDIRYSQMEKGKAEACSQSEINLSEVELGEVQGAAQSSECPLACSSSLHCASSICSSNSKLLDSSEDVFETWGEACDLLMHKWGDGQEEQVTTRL
Type: cell-based
Description: HEK 293 cells expressing human TRPC5 cells were trypsinised, counted and seeded in black, clear-bottomed 96-well plates at a density of 50,000 cells per well and incubated overnight. Next day, the cells were loaded with membrane potential dye. Dye solution was made up according to the manufacturer's instructions in HEPES buffered Hank's balanced salt solution (HBSS). Dye solution (10 μL) was added to the wells and incubated at 37° C. for 1 hour. The test compounds and standard inhibitors were added to the wells and incubated at room temperature for 10 minutes. The plates were then placed in the flexstation and fluorescence monitored every 1.52 seconds. After 20 seconds, 10 μL of the appropriate standard agonist was added and the fluorescence monitored for 2 minutes at ex/emm: 530 nm/565 nm.

| Compound | IC50 |
| --- | --- |
| O=c1[nH]ncc(N2CCc3c(cnn3-c3ccccc3C(F)(F)F)C2)c1Cl | 1000 to 5000 nM |
| N#Cc1c(N2CCc3ncn(Cc4ccccc4C(F)F)c3C2)cn[nH]c1=O | 0.01 to 1000 nM |
| O=c1[nH]ncc(N2CCc3c(nnn3Cc3ccc(F)cc3C(F)F)C2)c1Cl | 0.01 to 1000 nM |
| Cc1nc2c(n1Cc1ccccc1C(F)(F)F)CCN(c1c(Cl)cn[nH]c1=O)C2 | 10000 to 500000 nM |
| CCOc1cccc(Cn2cnc3c2CCN(c2cn[nH]c(=O)c2Cl)C3)n1 | 1000 to 5000 nM |
| O=c1[nH]ncc(N2CCc3c(nnn3Cc3ccccc3OC(F)F)C2)c1Cl | 0.01 to 1000 nM |
| N#Cc1ccccc1-n1cnc2c1CN(c1cn[nH]c(=O)c1C#N)CC2 [drawing 898] | 1000 to 5000 nM |
| Cc1ncccc1Cn1cnc2c1CN(c1cn[nH]c(=O)c1Cl)CC2 | 1000 to 5000 nM |
| CCc1cccnc1Cn1cnc2c1CN(c1cn[nH]c(=O)c1Cl)CC2 | 5000 to 10000 nM |
| C[C@@H](c1ccccc1C(F)(F)F)n1nnc2c1CCN(c1cn[nH]c(=O)c1Cl)C2 [drawing 908] | 0.01 to 1000 nM |
| O=c1[nH]ncc(N2CCc3ncn(-c4ccccc4C(F)(F)F)c3C2)c1Cl [drawing 869] | 1000 to 5000 nM |
| O=c1[nH]ncc(N2CCc3ncn(Cc4cnccc4C(F)(F)F)c3C2)c1Cl | 10000 to 500000 nM |
| O=c1[nH]ncc(N2CCc3c(nnn3Cc3cccnc3CC(F)(F)F)C2)c1Cl | 0.01 to 1000 nM |
| O=c1[nH]ncc(N2CCc3nn(Cc4ccc(F)cc4C(F)(F)F)cc3C2)c1Cl | 0.01 to 1000 nM |
| CC[C@H](c1cccnc1)n1nnc2c1CCN(c1cn[nH]c(=O)c1Cl)C2 | 1000 to 5000 nM |
| O=c1[nH]ncc(N2CCc3nn(-c4ccccc4OC(F)(F)F)cc3C2)c1Cl | 1000 to 5000 nM |
| C[C@H](c1ccccc1C(F)(F)F)n1nnc2c1CCN(c1cn[nH]c(=O)c1C#N)C2 | 0.01 to 1000 nM |
| CC(c1ccccc1C(F)(F)F)n1nnc2c1CCN(c1cn[nH]c(=O)c1C#N)C2 (centres unmarked) | 5000 to 10000 nM |
| Cc1cccc(C)c1Cn1cnc2c1CCN(c1cn[nH]c(=O)c1Cl)C2 | 0.01 to 1000 nM |
| O=c1[nH]ncc(N2CCc3c(cnn3Cc3cccnc3CC(F)(F)F)C2)c1Cl | 1000 to 5000 nM |
| C[C@H](c1ccccc1C(F)(F)F)n1nnc2c1CCN(c1cn[nH]c(=O)c1Cl)C2 | 0.01 to 1000 nM |

Each compound was assayed against T2, TRPC4 (Homo sapiens, UniProt Q9UBN4) (assay: TRPC4 FLIPR Assay (HEK-TREx hTRPC4, Englerin A stimulation)). Settings: Table 8; HEK-TREx hTRPC4; read-out: TRPC4 FLIPR IC50.
T2 construct: expressed in transfected cells; host or cells: HEK-TREx (HekTrex-293), cell line ICLN-1694, tetracycline-induced
T2 sequence (Q9UBN4 1-982 isoform Q9UBN4-5): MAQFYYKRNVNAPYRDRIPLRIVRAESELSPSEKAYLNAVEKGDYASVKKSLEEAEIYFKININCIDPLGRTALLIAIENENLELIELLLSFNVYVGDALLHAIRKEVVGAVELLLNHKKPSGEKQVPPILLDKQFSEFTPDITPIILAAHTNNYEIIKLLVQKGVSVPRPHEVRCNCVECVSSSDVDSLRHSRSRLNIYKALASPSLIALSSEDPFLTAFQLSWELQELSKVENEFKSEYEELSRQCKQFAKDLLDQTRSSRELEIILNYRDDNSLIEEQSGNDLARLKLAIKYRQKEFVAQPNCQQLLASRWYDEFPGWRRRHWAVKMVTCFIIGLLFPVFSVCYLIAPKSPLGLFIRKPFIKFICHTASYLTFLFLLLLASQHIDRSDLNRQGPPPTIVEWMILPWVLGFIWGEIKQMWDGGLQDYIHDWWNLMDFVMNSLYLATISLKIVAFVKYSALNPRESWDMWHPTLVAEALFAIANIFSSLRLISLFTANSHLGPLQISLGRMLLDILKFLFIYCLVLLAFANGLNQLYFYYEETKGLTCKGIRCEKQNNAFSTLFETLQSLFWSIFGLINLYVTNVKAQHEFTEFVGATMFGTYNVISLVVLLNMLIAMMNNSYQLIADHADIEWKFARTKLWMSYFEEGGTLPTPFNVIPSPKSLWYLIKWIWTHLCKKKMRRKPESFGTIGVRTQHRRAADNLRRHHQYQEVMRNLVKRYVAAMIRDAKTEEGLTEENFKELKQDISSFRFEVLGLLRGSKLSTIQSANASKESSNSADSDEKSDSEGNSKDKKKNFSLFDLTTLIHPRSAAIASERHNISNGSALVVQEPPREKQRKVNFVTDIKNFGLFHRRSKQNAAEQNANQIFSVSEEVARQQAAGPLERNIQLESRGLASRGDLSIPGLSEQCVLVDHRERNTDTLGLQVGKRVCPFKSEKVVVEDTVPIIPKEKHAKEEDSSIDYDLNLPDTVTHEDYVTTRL
Type: cell-based
Description: FLIPR Assay Buffer (Earls Balanced Salt Solution (EBSS)) was prepared as follows:
10-point dose response curves were generated using the Echo-550 acoustic dispenser. Compound source plates were made by serially diluting compound stocks to create 10 mM, 1 mM, and 0.1 mM solutions in DMSO into Echo certified LDV plates. The Echo then serially spotted 100% DMSO stock solutions into source dose response plates to generate a 4-fold dilution scheme. 100% DMSO was added to the spotted dose response plates to bring the final volume to 5 μl. […] of the dose response stock plate was then spotted into pre-incubation and stimulation assay plates. […] of pre-incubation buffer and 100 μl of stimulation buffer was then added to the plates resulting in a final assay test concentration range of 30 μM to 0.0001 μM with a final DMSO concentration of 0.3%.
Experimental Methods: Cells expressing TRPC4 were plated onto 384 well, black pdl-coated microplates and maintained in TRPC4 growth media the day prior to use for experiments. TRPC4 expression was induced by the application of 1 μg/ml tetracycline at the time of plating. […] Cells were incubated at room temperature, protected from light, for 60-90 minutes. After the incubation period, the dye was removed and replaced with 10 μl of EBSS. Cell, pre-incubation and stimulation plates were loaded onto the FLIPR-II and the assay was initiated. The FLIPR measured a 10 second baseline and then added 10 μl of 2× compounds (or controls). Changes in fluorescence were monitored for an additional 5 minutes. After a 5 minute pre-incubation, 20 μl of 2× Englerin A (with 1× compound or controls) was added to the cell plate. The final Engerlin A stimulation concentration in the assay is 100 nM. After the Englerin A addition, changes in fluorescence were monitored for an additional 5 minutes.
Test Agent Effect: Test agent modulation of TRPC4 calcium response was determined as follows. After the Englerin A, fluorescence was monitored for a 5 minute period. The maximum relative fluorescence response (minus the control response of […] of the control inhibitor) was captured and exported from the FLIPR. Test agent effect was calculated as % inhibition using the following formula: % inhibition=((RFU TEST AGENT−Plate Average RFU REF INHIB)/(Plate Average RFU CONTROL−Plate Average RFU REF INHIB))×100

| Compound | IC50 |
| --- | --- |
| CCc1nccc(C)c1CN1CCN(c2cn[nH]c(=O)c2Cl)CC1 | 1000 to 5000 nM |
| C[C@H](c1ccccc1C(F)(F)F)n1nc(C(N)=O)c2c1CCN(c1cn[nH]c(=O)c1Cl)C2 [drawing 990] | 0.01 to 1000 nM |
| C[C@@H](c1ccc(F)cc1C(F)(F)F)n1nnc2c1CCN(c1cn[nH]c(=O)c1Cl)C2 | 0.01 to 1000 nM |
| C[C@@H]1Cc2c(c(C(N)=O)nn2Cc2ccccc2C(F)(F)F)CN1c1cn[nH]c(=O)c1Cl [drawing 986] | 0.01 to 1000 nM |
| COCc1ccccc1Cn1cnc2c1CCN(c1cn[nH]c(=O)c1Cl)C2 [drawing 965] | 0.01 to 1000 nM |
| NC(=O)c1nc2c(n1Cc1ccccc1C(F)(F)F)CCN(c1cn[nH]c(=O)c1Cl)C2 [drawing 997] | 0.01 to 1000 nM |
| O=c1[nH]ncc(N2CCc3c(ncn3Cc3ccccc3)C2)c1Cl [drawing 939] | 0.01 to 1000 nM |
| C[C@@H](c1cccnc1CC(F)F)n1nnc2c1CCN(c1cn[nH]c(=O)c1Cl)C2 [drawing 991] | 0.01 to 1000 nM |
| Cc1ccccc1[C@@H](C)N1CCN(c2cn[nH]c(=O)c2Cl)CC1=O | 0.01 to 1000 nM |
| CS(=O)(=O)c1nc2c(n1Cc1ccccc1C(F)(F)F)CCN(c1cn[nH]c(=O)c1Cl)C2 [drawing 1002] | 0.01 to 1000 nM |
| Cc1cc(Cl)ccc1CN1CCN(c2cn[nH]c(=O)c2Cl)CC1=O [drawing 1018] | 1000 to 5000 nM |
| C[C@@H](c1ccccc1Cl)n1nnc2c1CCN(c1cn[nH]c(=O)c1Cl)C2 [drawing 1001] | 0.01 to 1000 nM |
| O=C1CN(c2cn[nH]c(=O)c2Cl)CCN1Cc1ccc(F)cc1Cl [drawing 1013] | 0.01 to 1000 nM |
| C[C@@H](c1ccccc1C(F)F)n1nnc2c1CCN(c1cn[nH]c(=O)c1Cl)C2 [drawing 980] | 0.01 to 1000 nM |
| O=c1[nH]ncc(N2CCc3c(ncn3Cc3ccccc3OC(F)(F)F)C2)c1Cl | 0.01 to 1000 nM |
| Cc1ccccc1CN1CCN(c2cn[nH]c(=O)c2Cl)CC1=O [drawing 1008] | 0.01 to 1000 nM |
| C[C@H](c1ccc(F)cc1C(F)(F)F)n1nnc2c1CCN(c1cn[nH]c(=O)c1Cl)[C@H]2C [drawing 976] | 0.01 to 1000 nM |
| Cc1cc(F)ccc1CN1CCN(c2cn[nH]c(=O)c2Cl)CC1 [drawing 1012] | 5000 to 10000 nM |
| O=c1[nH]ncc(N2CCN(Cc3ccccc3Cl)CC2)c1Cl [drawing 1010] | 1000 to 5000 nM |
| COC[C@H](c1ccccc1C(F)(F)F)n1cnc2c1CCN(c1cn[nH]c(=O)c1Cl)C2 [drawing 988] | 0.01 to 1000 nM |
